For the experiment, the target named is T1, MPO (Homo sapiens, UniProt P05164).
T1 sequence (P05164 49-745): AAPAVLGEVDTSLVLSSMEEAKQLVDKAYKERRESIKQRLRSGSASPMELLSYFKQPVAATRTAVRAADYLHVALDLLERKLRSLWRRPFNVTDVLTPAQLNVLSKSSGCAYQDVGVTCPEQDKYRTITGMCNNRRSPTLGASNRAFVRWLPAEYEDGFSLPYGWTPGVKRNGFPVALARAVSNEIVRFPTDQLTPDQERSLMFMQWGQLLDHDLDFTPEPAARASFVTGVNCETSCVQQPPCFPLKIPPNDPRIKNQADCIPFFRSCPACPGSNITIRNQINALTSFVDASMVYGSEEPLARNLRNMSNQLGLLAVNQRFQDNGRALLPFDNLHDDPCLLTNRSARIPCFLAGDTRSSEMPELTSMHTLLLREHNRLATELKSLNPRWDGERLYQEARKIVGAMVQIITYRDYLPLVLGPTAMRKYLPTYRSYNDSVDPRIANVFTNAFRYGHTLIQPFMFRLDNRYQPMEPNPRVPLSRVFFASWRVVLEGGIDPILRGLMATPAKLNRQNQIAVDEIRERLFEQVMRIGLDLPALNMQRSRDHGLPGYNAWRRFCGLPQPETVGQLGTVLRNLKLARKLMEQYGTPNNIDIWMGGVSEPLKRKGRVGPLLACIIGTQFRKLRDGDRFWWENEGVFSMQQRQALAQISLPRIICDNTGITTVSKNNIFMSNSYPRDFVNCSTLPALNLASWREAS
The experiment is described as follows: MPO-mediated LDL malondialdehyde (MDA) formation. Format: biochemical. The arrangement: purchased Lee Biosolutions (St. Louis, Mo.). Conditions: increasing concentrations; 37° C., 4 h. On the procedure:
MPO-mediated LDL Malondialdehyde (MDA) Formation: Reaction mixtures contained LDL (0.5 mg/mL), NaNO2 (50 μM), H2O2 (50 μM), MPO (50 nM) and increasing concentrations of KYC in a phosphate buffer (100 mM, pH 7.4) containing DTPA (100 μM). After incubation at 37° C. for 4 h, the reactions were stopped by addition of catalase (2,000 units/mL). The formation of MDA was determined according to a published procedure. Briefly, incubation mixtures (containing 25 mM BHT) were adjusted to pH 1.5 and incubated at 60° C. for 80 min to hydrolyze the Schiff Bases formed from MDA and protein. The samples were mixed with 3-fold volume of N-methyl-2-phenylindole (13.4 mM in acetonitrile/methanol (3:1)). After centrifugation (13000 g, 5 min) 330 μL of the supernatants were mixed with 57.5 μL of concentrated HCl and incubated at 45° C. for another 60 min. Finally, after centrifugation (13000 g, 5 min), total MDA in the samples was determined from the absorbance at 586 nm using a UV-Vis spectrophotometer (Agilent Model 8453).

SMILES strings stand for the structures. Residues, ends and D or L forms follow the SMILES beside them.

`CC(=O)N[C@@H](CCCCN)C(=O)N[C@@H](Cc1ccc(O)cc1)C(=O)N[C@@H](CS)C(N)=O` [KYC, N-acetyl Lysyltyrosylcysteine Amide] (Ac-Lys-Tyr-Cys-NH2): the “MPO-mediated MDA formation in LDL (in words)” value is listed as “dose-dependently inhibited”.
